# Like-named read-outs stand apart in the source and are kept apart here.
# Columns and labels:
# [1] = test system: neovasculature in BxPC3 tumor tissue; assay: 3-1 BxPC3 xenograft, neovasculature morphological change and dextran distribution; assay type: in vivo, nude mice
# Procedure: Twenty-four hours before sacrificing the animals, 1 mg/kg of LY364947 (hereinafter, referred to as LY) as TGF-β inhibitor or a control was administered once intraperitoneally. […] Concretely, regarding the neovasculature morphology, vascular endothelial cells were recognized with an antibody against PECAM-1 (platelet endothelial cell adhesion molecule-1), vascular pericytes were recognized with an antibody against NG2 (neuroglycan 2), the proportion of the areas covered by pericytes within the total endothelial cell area, and, the areas positive for the vascular endothelium marker were quantified (hereabove, n=4 animals×10 microscopic visual fields=40), in addition, regarding dextran distribution, the distribution area thereof was quantified. In addition, after an identical model was prepared, 6 hours prior to sacrifice, macromolecular dextran with a molecular weight of 2,000,000 (Invitrogen Molecular Probes) was administered via the tail vein, and the difference in distribution in tumor tissue due to the presence or absence of inhibitor was investigated by quantification of the distribution area (n=3 animals×4 microscopic visual field=12).
# neovasculature = assay: Matrigel plug assay, effects of TGF-β signaling inhibitor on neovasculature; assay type: in vivo, ICR mice; conditions: 500 nM LY
# Procedure: In the present invention, increasing the leakiness of neovasculature in tumor tissue, and, depending on the circumstances, decreasing fibrosis, are phenomena that can be observed, for instance, in a dextran injection experiment (briefly, an experiment in which a mouse is used, a Matrigel in which VEGF-A and FGF-2 have been mixed is injected subcutaneously into the abdominal wall, and seven days after administering TGF-β signaling inhibitor intraperitoneally, 2,000,000 molecular weight dextran is injected, the animal is sacrificed, and the relationship between neovasculature and dextran distribution in the extracted Matrigel plug is determined: refer to Kano, M. R. et al., J. Cell Sci., 118, 3759-3768. (2005)) (refer to FIG. 2-1 and FIG. 2-2).
# VEGF-A, FGF-2, and heparin were mixed into Matrigel (BD), furthermore, 500 nM of the TGF-β inhibitor LY364947 (hereinafter, referred to as LY) or 50 μg/ml of T βRII:Fc or a control was further mixed into the same gel, these were subcutaneously injected into the abdominal wall of male ICR mice, the animals were sacrificed on the 7th day to extract the Matrigel plug, and a search was carried out using immunofluorescence staining. Concretely, regarding the neovasculature morphology, vascular endothelial cells were recognized with an antibody against PECAM-1 (platelet endothelial cell adhesion molecule-1) and vascular pericytes were recognized with an antibody against SMA (a smooth muscle actin), in the LY-administered group or control group, the proportion of the areas covered by pericytes within the total endothelial cell area, and, the areas positive for the vascular endothelium marker were quantified (hereabove, n=20). In addition, 6 hours prior to sacrifice, macromolecular dextran with a molecular weight of 2,000,000 (Invitrogen Molecular Probes) was administered via the tail vein, and the difference in distribution in tumor tissue due to the presence or absence of inhibitor was investigated by quantification of the distribution area (n=21).
# phosphorylated Smad2 [2] = assay: 3-4 Phosphorylated Smad2 in nucleated blood cells by FACS one hour after LY364947; assay type: in vivo, nude mice; conditions: LY 1 mg/kg i.p., 1 h, control group 35.7%
# Procedure: Cancer-transplanted nude mice were administered once intraperitoneally with 1 mg/kg of LY as TGF-β inhibitor or a control. One hour after administration, whole blood collection was carried out, hemolysis treatment, formalin fixation, cell membrane perforation by methanol were carried out, then, staining was carried out with an antibody against phosphorylated Smad2, thereafter, the ratio of phosphorylated Smad2-positive cells was measured by FACS. In so doing, with those [samples] where only the secondary antibody was reacted serving as controls for the immuno-staining method, the gate was set so that rate of positive cell was approximately 1% in this group (P1 in FIG. 5-2), and the ratio of phosphorylated Smad2-positive cells was measured for the TGF-β inhibitor-administered group and the non-treated group.
# [3] = 3-14 Drug in vivo dynamics in general organs, Micelle-ADR or ADR with LY; set-up: species or system nude mice
# Procedure: Each of 8 mg/kg of Micelle-ADR or 8 mg/kg of ADR as anticancer agent was administered to tumor-bearing nude mice via the tail vein. As TGF-β inhibitor, 1 mg/kg of LY or a control was administered intraperitoneally. Experiment was carried out for the four conditions combining the above 2×2 types [of administration modes], with n=3. […] In addition, the surrounding of the tail vein where the agents were administered was observation.
# [4] = test system: TGFbRII-mutant pancreatic adenocarcinoma cell line MIA PaCa-2; assay: 3-8 MIA PaCa-2 xenograft tumor growth curve; assay type: in vivo, nude mice; conditions: regimen as 3-7, start = 1, control 2.91±0.30
# Procedure: For each of, 16 mg/kg of Micelle-ADR or 8 mg/kg of ADR as anticancer agent, or no anticancer agent, administration via the tail vein was carried out three times spaced by four days. As TGF-β inhibitor, 1 mg/kg of LY364947 (hereinafter, referred to as LY) or control was administered three times a week intraperitoneally. The experiment was carried out for the six conditions combining the above 3×2 types [of administration modes], with n=5 each. For these animals, the approximated values of tumor volume were observed continuously for 16 days. For the tumor volumes, those that have been approximated by long side of tumor mass×(short side)^2 were compared, taking 1 as the value at the administration start time for each tumor mass.
# [5] = test system: Smad-4-deficient pancreatic adenocarcinoma cells (BxPC3); assay: 3-7 BxPC3 xenograft growth curve, three administrations of ADR or Micelle-ADR with or without LY; assay type: in vivo, nude mice; conditions: day 16, Micelle-ADR 16 mg/kg or ADR 8 mg/kg i.v. three times spaced by four days, LY 1 mg/kg i.p. three times a week, start = 1, control 4.69±0.46
# Procedure: For each of, 16 mg/kg of Micelle-ADR or 8 mg/kg of ADR as anticancer agent, or no anticancer agent, administration via the tail vein was carried out three times spaced by four days. […] For these animals, the approximated values of tumor volume were observed continuously for 16 days.
# [6] = test system: existing vasculature of general organs (brain, liver, kidney); assay: 3-2 General organs, vasculature morphological change and dextran distribution; assay type: in vivo, nude mice; conditions: LY 1 mg/kg i.p.
# Description: Brain, liver and kidney were extracted from animals used in 3-1 to carry out histological search.
# phosphorylated Smad2 [7] = assay: 3-3 Phosphorylated Smad2 staining in BxPC3 cancer tissue one hour after LY364947; assay type: in vivo, nude mice; conditions: 1 h
# Procedure: As TGF-β inhibitor, 1 mg/kg, 25 mg/kg or a control of LY was administered once intraperitoneally. The animals were sacrificed one hour after administration to extract the tumor, and immuno-histological staining of the tumor was carried out using an antibody against phosphorylated Smad2 as well as an antibody against PECAM1.
# [8] = test system: Smad-4-deficient pancreatic adenocarcinoma cells (BxPC3); assay: 3-6 BxPC3 xenograft growth curve, single administration of ADR, Doxil, Micelle-ADR with or without LY; assay type: in vivo, nude mice; conditions: day 14, single dose 8 mg/kg anticancer agent i.v., LY 1 mg/kg i.p. once, start = 1, control 4.77±0.50
# Procedure: For each of 8 mg/kg of Doxil, 8 mg/kg of Micelle-ADR or 8 mg/kg of ordinary ADR as anticancer agent, or no anticancer agent, which was administrated via the tail vein, administration was carried out only once. […] Inhib in the figures) as TGF-β inhibitor or a control.
# [9] = test system: Smad-4-deficient pancreatic adenocarcinoma cells (BxPC3); assay: Combined effect of Gemcitabine and LY364947 on tumor volume, pancreatic adenocarcinoma xenograft model; assay type: in vivo, nude mice; conditions: day 21, Gem 125 mg/kg i.p. twice a week, LY 1 mg/kg i.p. three times a week, value at start = 1, control 5.56±1.59
# Procedure: Combining Gemcitabine (hereinafter, abbreviated as Gem), administrated twice a week intraperitoneally at 125 mg/kg, and LY364947 (hereinafter, referred to as LY), administrated three times a week intraperitoneally at 1 mg/kg, three groups were established as follows: a control group, a Gem alone administration group and a LY+Gem combined application group, with n=2 each. […] The tumor volumes were approximated by long side of tumor mass×(short side)^2 and compared, taking 1 as the value at the administration start time for each tumor mass.
# [10] = test system: mouse breast cancer cell line 4T1; conditions: systemic administration by intraperitoneal injection; cited from earlier work
# hepatic fibrosis = conditions: intraperitoneal injection, cited from earlier work
molecule,measurement,setting,value
c1ccc(-c2[nH]ncc2-c2ccnc3ccccc23)nc1 [LY364947],endothelial cell marker-positive area,"[1]; BxPC3 xenograft, LY 1 mg/kg i.p. once, 24 h, control 1.00±0.03, p=0.02",1.13±0.06
same,extent of coverage of endothelial cells by the pericyte,"[1]; BxPC3 xenograft, LY 1 mg/kg i.p. once, 24 h, control 36.0±2.2%, p=0.00002",23.3±1.9%
same,macromolecular dextran distribution area,"[1]; BxPC3 xenograft, LY 1 mg/kg i.p. once, dextran MW 2,000,000 6 h before sacrifice, control 1.00±0.13, p=0.002",2.24±0.36
same,fibrosis of tumor tissue (azan staining),"[1]; LY 1 mg/kg, administered vs non-administered, P=0.336",no significant difference
same,total area of the vascular endothelium,"neovasculature; day 7, p=0.0009",increased significantly
same,endothelial cell coverage of the pericytes,"neovasculature; day 7, vs non-administered group, p=0.006",decreased significantly
same,dextran distribution area,"neovasculature; dextran MW 2,000,000 i.v. 6 h before sacrifice, p<0.0001",increased approximately two-fold
same,cells positive for phosphorylated Smad2,phosphorylated Smad2 [2],16.3%
same,"organ distribution (frozen samples), LY administration vs non-administration","[3]; LY 1 mg/kg i.p., four hours",no clear difference
same,"total amount of ADR in organs by the HPLC method, LY administration vs non-administration","[3]; Micelle-ADR 8 mg/kg i.v., LY 1 mg/kg i.p., four hours, all organs measured",no significant difference
same,anticancer agent-related phlebitis,"[3]; combined administration of LY 1 mg/kg i.p., surrounding of the tail vein",no deterioration
same,relative tumor volume on the last day (16th day),[4],2.75±0.08
same,relative tumor volume on the last day,[5],4.34±0.37
same,dextran distribution in general organs,[6],no clear difference
same,morphology of existing vasculature of general organs,[6],No clear change in morphology
same,"Smad2 phosphorylation in intratumoral vascular walls, magnified visual field",phosphorylated Smad2 [7]; LY 1 mg/kg i.p.,cancellation of Smad2 phosphorylation was observed
same,"phosphorylated Smad2 staining of tumor vs control, weak magnification visual field",phosphorylated Smad2 [7]; LY 1 mg/kg i.p.,no remarkable difference
same,Smad2 phosphorylation in cancer cells,phosphorylated Smad2 [7]; LY 25 mg/kg i.p.,cancellation of Smad2 phosphorylation was observed in almost the entirety of the cancer cells
same,relative tumor volume on the last day,[8],4.83±0.54
Nc1ccn([C@@H]2O[C@H](CO)[C@@H](O)C2(F)F)c(=O)n1 [Gemcitabine],relative tumor volume on the last day,[9],4.76±0.46
"COc1cccc2c1C(=O)c1c(O)c3c(c(O)c1C2=O)C[C@@](O)(C(=O)CO)C[C@@H]3O[C@H]1C[C@H](N)[C@H](O)[C@H](C)O1 [ADR, adriamycin]",relative tumor volume on the last day (16th day),[4],0.87±0.19
same,relative tumor volume on the last day,[5],3.49±0.20
same,relative tumor volume on the last day,[8],4.70±0.32
"solubilized TGF-β Type II receptor: solubilized TGF-β Type II receptor (TGF-β ligand-adsorbed) protein, literature studies (protein, UniProt P37173 23-166, looked up, extracellular domain, solubilized TGF-β Type II receptor (TGF-β ligand-adsorbed) protein, literature studies) extracellular domain: TIPPHVQKSVNNDMIVTDNNGAVKFPQLCKFCDVRFSTCDNQKSCMSNCSITSICEKPQEVCVAVWRKNDENITLETVCHDPKLPYHDFILEDAASPKCIMKEKKKPGETFFMCSCSSDECNDNIIFSEEYNTSNPDLLLVIFQ",lung metastasis,[10],decreased
same,hepatic fibrosis,hepatic fibrosis; 2.5 mg/kg,not suppressed
same,hepatic fibrosis,hepatic fibrosis; 5 mg/kg,suppressed
